Laboratory results from a melting point compilation (Tetko et al.; mined from patent text by program, amines drawn as free bases though some values may be those of a salt).

melting point	Structure (SMILES)
112 to 113 °C	C=CCC(C(=O)OC)C(=O)c1cccnc1 (configuration not stated)
114 to 116 °C	OCC1CN(C(c2ccccc2)c2ccccc2)C1
92 °C	CCN(CC)CCOc1ccc(Nc2ncc3c(n2)N(c2cccc(CCN(C)C)c2)C(=O)N(c2ccc(Cl)cc2Cl)C3)cc1
90 to 92 °C	COC(=O)CC(=O)c1ccc(O)cc1
130 °C	COC(=O)NCC1CN(c2ccc(-n3cnc(Cn4cccn4)c3)c(F)c2)C(=O)O1 (configuration not stated)
117 °C	Cc1cc(C2=CCC(c3ccc(OCC4CO4)cc3)CC2)ccc1OCC1CO1 (configuration not stated)
51 to 53 °C	NC(=O)COCCOCCN1CCC(=C(c2ccccc2)c2ccccc2)CC1
128 to 130 °C	COc1ccc(Oc2c(C)noc2NS(=O)(=O)c2ccccc2)cc1
232 to 234 °C	O=C1c2c(c(=O)n3nc(-c4ccccc4)cc3n2Cc2ccccc2)CN1Cc1ccccc1
130 to 132 °C	O=C(CCC1CCCC1)Nc1ccc(-n2nc(C(F)(F)F)cc2C(F)(F)F)cc1
229 to 231 °C	O=C(Nc1cc(C(F)(F)F)cc(C(F)(F)F)c1)Nc1cc(C(F)(F)F)ccc1Oc1ccccc1C(=O)O
110 to 115 °C	COc1cc(C(=O)N2CCC(CCN3CCC(C(=O)c4nc5ccccc5n4Cc4ccccn4)CC3)(c3ccc(Cl)c(Cl)c3)C2)cc(OC)c1OC (configuration not stated)
230 to 233 °C	CCCCOC(=O)C=C(C)C=CC=C(C)C=Cc1c(C)c(C)c(OC)c(C)c1C
106 to 107 °C	CCC(CC)c1nn(-c2ccc(Cl)cn2)cc1CCCOc1c(C)cccc1CC(=O)O
84 to 86 °C	COC(=O)NC(=NS(=O)(=O)NC1CCCCC1)OC
212 °C	CC(C)(C)OC(=O)CCNC(=O)c1cccc(NC(=O)c2csc(NC(=O)NCc3ccccc3)n2)c1
150 to 151 °C	CC(C)=CCc1c(O)ccc(C(=O)C=Cc2ccc(O)cc2O)c1O
186 to 187 °C	CCCc1nc2c(N)nc3cc(C)ccc3c2s1
177 to 178 °C	Cc1cc2c(cc1C)C(C(=O)O)SCC2=O (single isomer, unassigned; (-))
180 to 192 °C	COc1cc(-c2nn(C(C)(C)C)c(N)c2C(N)=O)cc(OC)c1OC
118 to 119 °C	CC(CCC(=O)OCc1ccccc1)C1CC=C2C3=C(CCC21C)C1(C)CCC(O)C(C)(C)C1CC3 (configuration not stated)
124 to 125 °C	N#CCCS(=O)(=O)c1ccc(S(=O)(=O)Cl)cc1
147 to 150 °C	COc1ccc(C(CC(=O)O)CC(=O)O)cc1
137 to 139 °C	COc1ccc(CNc2ccc(C(=O)Nc3cccc4cc(C(=O)Nc5cc(C(C)(C)C)cc(NS(C)(=O)=O)c5OC)sc34)cn2)cc1

melting point	Structure (SMILES)
144 °C	CCc1cc(CC(=O)O)ccc1OCc1ccc2ccccc2n1
114 to 115 °C	CC(=O)N=C(OC(C)=O)N1CCSC1c1ccccc1OCCN1CCN(c2cccc(F)c2)CC1 (configuration not stated)
99 to 99.5 °C	CN(C(=O)NN1CC=CCC1)c1ccccc1
85 °C	CCOC(c1ccccc1)(c1ccccc1)C(C)CNC (configuration not stated)
295 to 300 °C	O=C1CSC(=S)N1N=c1sc2ccccc2s1
129 to 130 °C	CCCc1c(OCCc2cc3cc(CC(=O)O)ccc3[nH]2)ccc2c(-c3ccccc3)coc12
131 to 132 °C	O=C(NCCO)c1cc(-c2cccc3nn(Cc4cccc(C(F)(F)F)c4)cc23)ccn1
130 to 132 °C	COc1cc2c(c3c1OC(C)(C)C3)C(c1cccc(NC(=O)c3ccc(Cl)nc3Cl)c1)=NC(C)(C)C2
106 to 107 °C	CCCc1nc(C(C)(C)O)c(C(=O)OCOC(=O)C(C)(C)C)n1Cc1ccc(-c2ccccc2C(=O)OC(C)(C)C)cc1
228 to 230 °C	COc1ccc(-c2csc(NC(=O)c3cc4ccccc4cn3)n2)cc1OC
166 to 168 °C	COC(=O)N1c2cc(F)ccc2NC(=O)C1(C)C
98 to 99 °C	O=[N+]([O-])c1ccc(SSc2ncccn2)c(C(Cl)(Cl)Cl)c1
216 to 217 °C	O=C(O)CSc1ccc([N+](=O)[O-])cc1C(=O)O
82 to 84 °C	COc1ccc(CNc2ccc(Cl)cc2C(=O)C(F)(F)F)cc1OC
83 °C	O=C(NCc1cccnc1)c1ccc2n1Cc1ccccc1N(C(=O)Cc1ccc(Cl)cc1)C2
134 to 138 °C	CC(=O)NC[C@H]1CN(c2ccc(N3CCC4(CC3)COCO4)cc2)C(=O)O1
> 270 °C	O=c1[nH]c2cc(Cl)ccc2c(O)c1Sc1nc2ccccc2s1
143 to 144 °C	C=CCOc1cccc2nn(C)c(S(N)(=O)=O)c12
130 to 132 °C	Fc1ccc([C@H]2CC[C@H](N3CCN(Cc4ccccc4)CC3)CC2)c2ccccc12
82 to 84 °C	CCC(CC)NC(=O)NC/C=C\COc1cc(CN2CCCCC2)ccn1
145 to 147 °C	CC/C=C/CONC(=O)c1nc(-c2ccc(Cl)c(OC)c2F)cc(N)c1Cl
134 to 136 °C	O=C(c1cc[nH]c1)c1ccc2ccccc2c1
135 to 137 °C	CCCc1nc2c(N)nc3ccccc3c2n1CCCCCCCCCCCC(=O)NC
120 to 122 °C	NC(=S)NCc1ccccc1Cl

melting point	Structure (SMILES)
225 to 226 °C	COc1ccc(-c2cc(C(=O)Nc3cccc(F)n3)c3ccccc3n2)cc1OC
169 °C	COc1ccc(S(=O)(=O)N(c2ccc(Cl)cc2Cc2c(F)cccc2F)C(C)CO)cc1OC (configuration not stated)
148 to 150 °C	CC(C)(C)c1ccc2c(c1)c(Sc1ccccc1)c(CC(=O)O)n2Cc1ccc(Cl)cc1
233 to 235 °C	CN1CCN(CC2CCN(c3ccc(Nc4ncc5ccc(-c6cccc(S(=O)(=O)NC(C)(C)C)c6)n5n4)cc3)CC2)CC1
116 to 118 °C	CC1Nc2ccc(-c3coc(C#N)c3)cc2C(C)(C)O1 (configuration not stated)
59 to 60 °C	CCCCCCCC(=O)NCCCCOS(C)(=O)=O
212 to 215 °C	COc1cc(C(=O)NS(=O)(=O)c2ccccc2C)ccc1Cc1cn(C)c2ccc(NC(=O)NC3CCCC3)cc12
> 275 °C	CCn1c(=O)c2[nH]c(/C=C/c3ccc(OC)c(C)c3OC)nc2n(CC)c1=O
285 °C	NS(=O)(=O)c1cccc(-c2nc(-c3cnn4c(C(F)(F)F)cc(-c5ccc(C(F)(F)F)cc5)nc34)no2)c1
192 °C	CN1CCN(C(=O)OC2C3=C(SCCS3)C(=O)N2c2ccc3ccc(Cl)cc3n2)CC1 (configuration not stated)
138 to 140 °C	Cc1cc(-c2cccc(Cl)c2)nnc1Cl
94 to 96 °C	NCCCC(O)c1ccccc1 (configuration not stated)
166 to 167 °C	CC1(CNCc2cc3cc(NC(=O)c4ccc(OCC5CC5)cc4)ccc3[nH]2)COC1
191 to 192 °C	COc1cc(-c2csc(N)n2)c(OC)cc1C
118 to 121 °C	CCOC(=O)C1=C(C)NC(CSCOC(C)=O)=C(C(=O)OCC)C1c1cccc([N+](=O)[O-])c1 (configuration not stated)
117 to 119 °C	CCc1cc(C(=O)c2ccccc2Cl)c(-n2c(C)nnc2COC(=O)c2ccc(Cl)c(Cl)c2)s1
189 to 201 °C	CCOC1(C(Cl)(Cl)Cl)NC(=O)C(=O)N1
116 to 117 °C	Cc1ccccc1Oc1cccc(CC(=O)O)c1O
114 to 116 °C	CC(C)(C)OC(=O)NCC(=O)Nn1cccc1C(=O)c1ccccc1F
319 to 320 °C	Cc1cccc2c(C(=O)O)cc(-c3ccccn3)nc12
66 to 68 °C	CCOC(=O)C(=CNc1cccccc1=O)C(=O)OCC
160 to 161 °C	CCCc1c(Cc2ccccc2)ccc2c(=O)cc(CCC(=O)O)oc12
122 to 125 °C	CCCSc1ccc([N+](=O)[O-])c(NC(=S)NC(=O)OC)c1
161 to 162 °C	CC(C)c1ccc2c(c1)C(C(=O)O)c1ccccc1CO2 (configuration not stated)

melting point	Structure (SMILES)
191 to 194 °C	O=C(NCc1cccnc1)c1ccc2n1Cc1ccccc1N(C(=O)c1ccc(-c3ccccc3CN3CCOCC3)cc1)C2
245 to 252 °C	O=c1[nH]c2cc(F)c(F)cc2cc1P(=O)(O)O
278 to 279 °C	Cc1ccc([N+](=O)[O-])c(C(=O)Nc2nnn[nH]2)c1
147 to 151 °C	CCOC(=O)C(=CNc1nnc(C)s1)C(=O)c1cc(F)c(F)cc1F
127 to 131 °C	COC(=O)c1ccc2sc(C(=O)OC)c(O)c2c1Cl
201 to 204 °C	CCCn1c(COC)nc2c(N)nc3ccc(OCC(=O)N4CCOCC4)cc3c21
228 to 230 °C	O=c1[nH]c2sccc2c(=O)n1CCN1CCN(c2ccccc2)CC1
125 °C	C=CCN1C(=O)C(O)(CC(=O)N(C)C)c2cc(CO)ccc21 (configuration not stated)
59 °C	CCOC(COc1ccc2c(-c3ccccc3F)noc2c1Cl)OCC
201 to 209 °C	CC1(OC(=O)c2ccccc2)C(OC(=O)c2ccccc2)OC(COC(=O)c2ccccc2)C1OC(=O)c1ccccc1 (configuration not stated)
176 to 178 °C	O=C(O)c1cc(SC(F)(F)F)c(-c2ccc(Cl)cc2)[nH]1
98 to 99 °C	CCC(=O)c1ccc(-c2ccccc2)cc1
178 to 180 °C	Cc1ccn(-c2ccc(C(=O)N3Cc4ccc(C)n4Cc4ccccc43)c(Cl)c2)n1
235 to 240 °C	O=C(N=CNO)c1cc2c(cn1)[nH]c1ccccc12
101 to 106 °C	CC(C)(C)OC(=O)N1CCC(c2cc(F)ccc2F)(S(=O)(=O)c2ccc(Cl)cc2)CC1
142 to 145 °C	Cc1cc(NC(=O)c2ccccc2O)cc(C)c1O
109 to 110 °C	O=C(C(Br)c1ccc(Cl)cc1)C1(c2ccc(Cl)c(Cl)c2)CCC1 (configuration not stated)
90 to 92 °C	CC(C)NC(=O)NC/C=C\COc1cc(CN2CCCCC2)ccn1
226 to 228 °C	O=C(NC1CC1)c1ccc(CCN2CC=C(c3c[nH]c(-c4ccc(F)cc4)c3-c3ccncc3)CC2)cc1
70.5 to 71 °C	CCOC(=O)c1cc(C(C)C)n(C)n1
177 to 180 °C	N#Cc1c(Cl)[nH]c2ccccc12
195 to 198 °C	CCOc1ccc([N+](=O)[O-])cc1NC(C)=O
88 °C	CC(C)OC(=O)NC12CC1CN(Cc1ccccc1)C2 (configuration not stated)

Structure (SMILES)	melting point
CCOC(=O)C(C#N)=NOC(=O)OCC(Cl)(Cl)Cl	51 to 53 °C
CC1CCC2(C)C(=CCC3C4CC(O)C(=O)C4(C)CCC32)C1 (configuration not stated)	166 to 168 °C
